The text below walks through data of patent US20140066362A1, “METHOD FOR TREATING INFECTIONS BY TARGETING MICROBIAL H2S-PRODUCING ENZYMES” (NEW YORK UNIVERSITY, priority 2011, published 2014).

Like-named read-outs stand apart in the source and are kept apart here.

The experiment relates to E. coli ΔsseA (3MST-deficient) strain. The format is cell-based.
The mark [1] stands for this setting: Table 1, relative values of growth inhibition (negative numbers), ΔsseA vs wt E. coli.

`O=[N+]([O-])c1ccc(Cl)c([N+](=O)[O-])c1` [1-Chloro-2,4-dinitrobenzene]: under setting [1], the “ΔsseA inhibition of growth” value is on record as −221. Still for that read-out and setting: then `CC(C)c1nc2nc(N)nc(N)c2nc1C(C)C` [2,4-Diamino-6,7-diisopropylpteridine], with −429.

Take `O=[N+]([O-])c1ccc(O)c([N+](=O)[O-])c1` [2,4-Dinitrophenol]: the “ΔsseA inhibition of growth” value under setting [1] was −296. Consider `Nc1c2ccccc2nc2ccccc12` [9-Aminoacridine], for which the “ΔsseA inhibition of growth” value under setting [1] is recorded as −142. As to `O=P(O)(O)O` [200 mM Sodium Phosphate pH 7, Sodium Phosphate], the “ΔsseA inhibition of growth” value is recorded as −497. As for `CCCCC(CC)CNC(=N)NC(=N)NCCCCCCNC(=N)NC(=N)NCC(CC)CCCC` (stereo not drawn) [Alexidine], under setting [1], the “ΔsseA inhibition of growth” value is −216. Same read-out and setting: then `CN(C)CCC=C1c2ccccc2CCc2ccccc21` [Amitriptyline], with −422; and `CN[C@@H]1[C@@H](O[C@H]2O[C@H](CO)[C@@H](N)[C@H](O)[C@H]2O)OC2C[C@@H](N)[C@@H](O[C@H]3[C@H](O)[C@@H](O)[C@H](N)C[C@@H]3N)OC2[C@@H]1O` (stereo partly drawn) [Apramycin], with −179; and `Cn1cnc([N+](=O)[O-])c1Sc1ncnc2nc[nH]c12` [Azathioprine], with −341. `NC(CO)C(=O)NNCc1ccc(O)c(O)c1O` (stereo not drawn) [Benserazide]: under setting [1], the “ΔsseA inhibition of growth” value was −336. The same measure, in the same setting: then `CN(CC[C@H](N)CC(=O)N[C@H]1C=C[C@H](n2ccc(N)nc2=O)O[C@@H]1C(=O)O)C(=N)N` [Blasticidin S], with −185. Still for that read-out and setting: to `N#CC(C#N)=NNc1cccc(Cl)c1` [CCCP] belongs −422; to `Cn1c(=O)c2c(ncn2C)n(C)c1=O` [Caffeine], −173. On the same count and under the same terms, to `O=C1C2CC=CCC2C(=O)N1SC(Cl)(Cl)Cl` (stereo not drawn) [Captan] belongs −357; to `CC1(C)S[C@@H]2[C@H](NC(=O)C(C(=O)O)c3ccccc3)C(=O)N2[C@H]1C(=O)O` (stereo partly drawn) [Carbenicillin], −164; to `CCN1CCN(C(=O)N[C@@H](C(=O)N[C@@H]2C(=O)N3C(C(=O)O)=C(CSc4nnnn4C)CS[C@H]23)c2ccc(O)cc2)C(=O)C1=O` [Cefoperazone], −159. For the compound `NC(=O)c1cc[n+](CC2=C(C(=O)O)N3C(=O)[C@@H](NC(=O)[C@@H](c4ccccc4)S(=O)(=O)[O-])[C@H]3SC2)cc1` [Cefsulodin], the “ΔsseA inhibition of growth” value under setting [1] is given as −201. Same read-out and setting: then `CC(=O)OCC1=C(C(=O)O)N2C(=O)[C@@H](NC(=O)Cc3cccs3)[C@H]2SC1` [Cephalothin], with −160.

As to `O=C(O)CCCc1ccc(N(CCCl)CCCl)cc1` [Chlorambucil], the “ΔsseA inhibition of growth” value under setting [1] was −177. On the same count and under the same terms, to `CN(C)CCCN1c2ccccc2Sc2ccc(Cl)cc21` [Chlorpromazine] belongs −251; to `O=C(O)C=Cc1ccccc1` [Cinnamic acid], −204.

`Cc1onc(-c2ccccc2Cl)c1C(=O)N[C@@H]1C(=O)N2[C@@H]1SC(C)(C)[C@@H]2C(=O)O` [Cloxacillin]: the “ΔsseA inhibition of growth” value under setting [1] was −182.

Turning to `O=c1ccc2ccccc2o1` [Coumarin], under setting [1], the “ΔsseA inhibition of growth” value is recorded as −243.

As for `CN(C)c1ccc(C(=C2C=CC(=[N+](C)C)C=C2)c2ccc(N(C)C)cc2)cc1` [Crystal Violet], under setting [1], the “ΔsseA inhibition of growth” value is reported as −576. On the same count and under the same terms, then `Nc1ccn([C@@H]2O[C@H](CO)[C@@H](O)[C@@H]2O)c(=O)n1` [Cytosine arabinoside], with −281. Still for that read-out and setting: then `N[C@H](CO)C(=O)O` [D-Serine], with −398; and `CCN(CC)C(=S)SSC(=S)N(CC)CC` [Disulfiram], with −246; and `CCCCCCCCCCCC[N+](C)(C)C.[Br-]` [Dodecyltrimethyl ammonium bromide], with −225. On the same count and under the same terms, to `CCCCCCCCCCCC[N+](C)(C)CCOc1ccccc1` [Domiphen bromide] belongs −250; to `CC[C@H]1OC(=O)[C@H](C)[C@@H](O[C@H]2C[C@@](C)(OC)[C@@H](O)[C@H](C)O2)[C@H](C)[C@@H](O[C@@H]2O[C@H](C)C[C@H](N(C)C)[C@H]2O)[C@](C)(O)C[C@@H](C)C(=O)[C@H](C)[C@@H](O)[C@]1(C)O` [Erythromycin], −468.

On to `N#CC(C#N)=NNc1ccc(OC(F)(F)F)cc1` [FCCP], for which the “ΔsseA inhibition of growth” value is reported as −460.

With `O=C1OC(CN2CCOCC2)CN1/N=C/c1ccc([N+](=O)[O-])o1` (stereo not drawn) [Furaltadone], under setting [1], the “ΔsseA inhibition of growth” value is reported as −162. On the same count and under the same terms, then `CC(=O)O[C@H]1C[C@@]2(C)[C@@H](C[C@@H](O)[C@H]3[C@@]4(C)CC[C@@H](O)[C@@H](C)[C@@H]4CC[C@@]32C)/C1=C(\CCC=C(C)C)C(=O)O` [Fusidic acid], with −271; and `NO` [Hydroxylamine], with −150; and `O=[N+]([O-])c1ccc(-n2nc(-c3ccccc3)n[n+]2-c2ccc(I)cc2)cc1.[Cl-]` [Iodonitro tetrazolium violet], with −215. Still for that read-out and setting: to `CO[C@@H]1[C@@H](O[C@@H]2O[C@H](C)[C@@H](O[C@H]3C[C@@](C)(O)[C@@H](OC(=O)CC(C)C)[C@H](C)O3)[C@H](N(C)C)[C@H]2O)[C@@H](CC=O)C[C@@H](C)[C@@H](O)/C=C/C=C/C[C@@H](C)OC(=O)C[C@H]1OC(C)=O` [Josamycin] belongs −294.

Regarding `CC(C(=O)O)c1cccc(C(=O)c2ccccc2)c1` (stereo not drawn) [Ketoprofen], under setting [1], the “ΔsseA inhibition of growth” value is −468. For `O=C1C=C(O)C(=O)c2ccccc21` [Lawsone], the “ΔsseA inhibition of growth” value under setting [1] is on record as −330.

In the case of `CCN(CC)CC(=O)Nc1c(C)cccc1C` [Lidocaine], under setting [1], the “ΔsseA inhibition of growth” value is recorded as −269.

In the case of `CCCCCCCC[N+](C)(CCCCCCCC)CCCCCCCC.[Cl-]` [Methyltrioctylammonium chloride], the “ΔsseA inhibition of growth” value under setting [1] was −326. Still for that read-out and setting: then `CO[C@@]1(NC(=O)C(C(=O)O)c2ccc(O)cc2)C(=O)N2C(C(=O)O)=C(CSc3nnnn3C)CO[C@@H]21` (stereo partly drawn) [Moxalactam], with −171. On the same count and under the same terms, then `CCOc1ccc2ccccc2c1C(=O)N[C@@H]1C(=O)N2[C@@H]1SC(C)(C)[C@@H]2C(=O)O` [Nafcillin], with −227; and `CCn1cc(C(=O)O)c(=O)c2ccc(C)nc21` [Nalidixic acid], with −183.

As for `CCn1cc(C(=O)O)c(=O)c2cc(F)c(N3CCNCC3)cc21` [Norfloxacin], the “ΔsseA inhibition of growth” value under setting [1] is −212.

For `CO[C@@H]1[C@@H](OC(N)=O)[C@@H](O)[C@H](Oc2ccc3c(O)c(NC(=O)c4ccc(O)c(CC=C(C)C)c4)c(=O)oc3c2C)OC1(C)C` [Novobiocin], the “ΔsseA inhibition of growth” value under setting [1] was −265. As to `CO[C@H]1C[C@H](O[C@H]2[C@H](C)[C@@H](O[C@@H]3O[C@H](C)C[C@H](N(C)C)[C@H]3O)[C@@H](C)C[C@@]3(CO3)C(=O)[C@H](C)[C@@H](O)[C@@H](C)[C@@H](C)OC(=O)[C@@H]2C)O[C@@H](C)[C@@H]1O` [Oleandomycin], under setting [1], the “ΔsseA inhibition of growth” value is given as −498. Still for that read-out and setting: to `Cc1ncc([N+](=O)[O-])n1CC(O)CCl` (stereo not drawn) [Ornidazole] belongs −203; to `Cc1onc(-c2ccccc2)c1C(=O)N[C@@H]1C(=O)N2[C@@H]1SC(C)(C)[C@@H]2C(=O)O` [Oxacillin], −346; to `CCn1cc(C(=O)O)c(=O)c2cc3c(cc21)OCO3` [Oxolinic acid], −117.

`CC1(C)S[C@@H]2[C@H](NC(=O)Cc3ccccc3)C(=O)N2[C@H]1C(=O)O` [Penicillin G]: the “ΔsseA inhibition of growth” value under setting [1] is on record as −186. Same read-out and setting: to `Oc1c(Cl)c(Cl)c(Cl)c(Cl)c1Cl` [Pentachlorophenol] belongs −287. Same read-out and setting: then `CC(Oc1ccccc1)C(=O)N[C@@H]1C(=O)N2[C@@H]1SC(C)(C)[C@@H]2C(=O)O` (stereo partly drawn) [Phenethicillin], with −216; and `O=S(=O)(F)Cc1ccccc1` [Phenyl-methylsulfonyl-fluoride (PMSF), Phenyl-methylsulfonyl-fluoride], with −194.

As for `OC(CCN1CCCCC1)(c1ccccc1)c1ccccc1` [Pridinol], the “ΔsseA inhibition of growth” value under setting [1] is listed as −206.

For the compound `Nc1ccc2cc3ccc(N)cc3nc2c1` [Proflavine], under setting [1], the “ΔsseA inhibition of growth” value is listed as −93. Consider `CC(CN1c2ccccc2Sc2ccccc21)N(C)C` (stereo not drawn) [Promethazine], for which, under setting [1], the “ΔsseA inhibition of growth” value is −262. Still for that read-out and setting: then `CC(C)NCC(O)COc1cccc2ccccc12` (stereo not drawn) [Propranolol], with −263; and `CO[C@H]1/C=C/O[C@@]2(C)Oc3c(C)c([O-])c4c(O)c(cc(O)c4c3C2=O)NC(=O)/C(C)=C\C=C\[C@H](C)[C@H](O)[C@@H](C)[C@@H](O)[C@@H](C)[C@H](OC(C)=O)[C@@H]1C.[Na+]` [Rifamycin SV], with −352; and `N.N.N.N.N.N.N.N.N.N.N.N.N.N.[Cl-].[Cl-].[Cl-].[Cl-].[Cl-].[Cl-].[O-2].[O-2].[Ru+3].[Ru+3].[Ru+4]` [Ruthenium red], with −268. Consider `CCCCCCCC(=O)[O-].[Na+]` [Sodium caprylate], for which, under setting [1], the “ΔsseA inhibition of growth” value is recorded as −346.

In the case of `N#CO` [Sodium cyanate], the “ΔsseA inhibition of growth” value under setting [1] is given as −238. Still for that read-out and setting: then `[H]/N=C(/N)N[C@H]1[C@H](O)[C@@H](O)[C@H](O[C@@H]2O[C@@H](C)[C@](O)(C=O)[C@H]2O[C@@H]2O[C@@H](CO)[C@H](O)[C@@H](O)[C@@H]2NC)[C@@H](N/C(N)=N\[H])[C@@H]1O` [Streptomycin], with −421; and `c1ccc(-c2nn(-c3ccccc3)[n+](-c3cccc4ccccc34)n2)cc1` [Tetrazolium violet], with −293; and `CSc1ccc2c(c1)N(CCC1CCCCN1C)c1ccccc1S2` (stereo not drawn) [Thioridazine], with −313. The same measure, in the same setting: then `CCS(=O)(=O)CCn1c([N+](=O)[O-])cnc1C` [Tinidazole], with −223; and `CN1CCN(CCCN2c3ccccc3Sc3ccc(C(F)(F)F)cc32)CC1` [Trifluoperazine], with −372.
